We go through one compound from PMC10907358, “Identification of oleic acid as an endogenous ligand of GPR3” (Cell Research, 2024).

Structures are written as SMILES. Several values for one entry are separate records, joined by “and”; a condition that tells them apart may be missing. Identical values can stand only once. Entries after “also recorded” stand apart in the source; their conditions may differ.

One may read the EC50 as the concentration needed to bring the measured effect to its halfway point.

Details of assay [1]: method as in PMID 7722695, PMID 18059405. The note with it: feeding rats with OA; cited from earlier work.
The next assay addresses T1, GPR3 (Homo sapiens, UniProt P46089).
T1 construct: expressed in transfected cells
Nature of the assay: GloSensor cAMP assay in GPR3 stably expressing AD293 cell line (agonist mode). It counts as cell-based. On the procedure:
(§1) The GloSensor cAMP assay was performed according to the instructions of Promega. AD293 cells were split into 6-well plate (300,000 cells/mL) and then transfected with the pGloSensor™-22F cAMP plasmid and pcDNA3-GPR3 plasmid by Lipofectamine 2000, at a ratio of 2:1 (μL:μg). 24 h after transfection, cells were split into 96-well plate for another 24 h incubation. After removal of cell medium, 90 μL of 3% v/v (the GloSensor cAMP reagent vs serum-free medium) substrate was added into each well. After 2 h incubation at RT, background measurements were taken, and then 10 μL 10× stock compounds were added for the second measurements of ligand activation via EnVision 2105 (PerkinElmer). Relative cAMP level was calculated by the cAMP level after addition of ligand divided by the cAMP level before addition of ligand (basal level). Stock FAs (i.e., 10–50 mM) were solubilized in DMSO, then diluted in cell culture buffer to designated concentrations and sonicated to ensure that they were evenly distributed in the buffer before being added to cells.
AD293 cells were split into 6-well plate (300,000 cells/mL), and then transfected with the pGloSensor™-22F cAMP plasmid and the pcDNA6-GPR3-3× FLAG plasmid (WT receptor or the mutants, F120A^3.36, W260A^6.48, L283F^7.39, A201W^5.46, Y280A^7.36, H96A^2.60 and H96A^2.60/Y280A^7.36) by Lipofectamine 2000 at a ratio of 2:1 (μL:μg). Geneticin (2 mg/mL) and blasticidin (20 μg/mL) were used to select colonies that stably express both GPR3 and GloSensor 22F. The cell culture medium containing antibiotics was changed every 2 days till well-separated colonies appeared. Then individual single colony was picked by a small piece of sterilized filter paper soaked with trypsin and separately cultured in a single well of 24-well plate. At least 24 candidate colonies were selected for each mutant and WT. After several days of culture, each colony was triplicated. One of the triplicates was used for western blot analysis, another for the GloSensor cAMP assay, and the remaining one was stored for staining. The colonies with top scores in both expression (western blot) and functional assay were selected as the representative colonies for each mutant or WT for further analysis.
On the technique in general: cAMP levels reflect the balance of adenylyl cyclase and phosphodiesterase activity.

In a further assay the test system is GPR120. Further details: method as in PMID 36862765. To be noted: cited from earlier work.
The target of the next assay is T2, GPR3 W260A mutant (Homo sapiens, UniProt P46089, W260A).
T2 construct: expressed in transfected cells
Nature of the assay: OA dose-response, GloSensor cAMP assay, AD293 stably expressing GPR3 W260A mutant. The format is cell-based. To be noted: W260A stable line. The protocol:
as §1
(§2) AD293 cells were split into 6-well plate (300,000 cells/mL), and then transfected with the pGloSensor™-22F cAMP plasmid and the pcDNA6-GPR3-3× FLAG plasmid (WT receptor or the mutants, F120A^3.36, W260A^6.48, L283F^7.39, A201W^5.46, Y280A^7.36, H96A^2.60 and H96A^2.60/Y280A^7.36) by Lipofectamine 2000 at a ratio of 2:1 (μL:μg). […]

The next assay addresses T3, GPR3 F120A mutant (Homo sapiens, UniProt P46089, F120A).
T3 construct: expressed in transfected cells
The assay is described as follows: OA dose-response, GloSensor cAMP assay, AD293 stably expressing GPR3 F120A mutant. The format is cell-based. The note with it: Table S3, F120A. The protocol:
as §1, §2

Another assay has as its target T4, GPR3 Y280A mutant (Homo sapiens, UniProt P46089, Y280A).
T4 construct: expressed in transfected cells
Nature of the assay: OA dose-response, GloSensor cAMP assay, AD293 stably expressing GPR3 Y280A mutant. It counts as cell-based. The note with it: Table S3, Y280A. The protocol:
as §1, §2

For another assay, the target named is T5, GPR3 H96A/Y280A mutant (Homo sapiens, UniProt P46089, H96A/Y280A).
T5 construct: expressed in transfected cells
Nature of the assay: OA dose-response, GloSensor cAMP assay, AD293 stably expressing GPR3 H96A/Y280A mutant. The format is cell-based. To be noted: H96A/Y280A stable line. The protocol: as §1, §2

In assay [2] the test system is Gs/cAMP/PKA signaling in Gpr3 KO iBAT. The assay is described as follows: Ex vivo iBAT of Gpr3 KO mice, p-PKA substrate immunoblot. The format is cell-based, mouse. The note with it: OA 1 mM, 4 h. The protocol:
iBAT was isolated from C57BL/6N mice at 4–6 weeks old and cut into 10 mg pieces. 10 mg iBAT was further cut into four pieces.[67] iBAT pieces were incubated in Dulbecco’s modified eagle medium (DMEM) at 4 °C, and treated with OA (1 mM) for different times (0 h, 1 h, 2 h, and 4 h). Another group of iBAT pieces were incubated in DMEM medium at 4 °C, and treated with different doses of OA (0 mM, 1 mM, 5 mM) for 4 h. OA (Sigma, O1008) was dissolved in serum-free DMEM (Gibco, high glucose, 12100046) by using an ultrasonic cleaner at 40 °C for 10 min. p-(S/T)PKA substrate and GAPDH levels were measured by immunoblotting, and quantified by densitometry using ImageJ. iBAT was also isolated from WT and Gpr3 KO mice at 4–6 weeks old and cut into 10 mg pieces. 10 mg iBAT was further cut into four pieces. iBAT pieces were incubated in DMEM medium at 4 °C, and treated with or without OA (1 mM) for 4 h. p-(S/T)PKA substrate and GAPDH levels were measured by immunoblotting, and quantified by ImageJ.
To generate Gpr3 complete KO mice rapidly, we performed one-step complete knockout based on CRISPR/Cas9 systems, which was described previously.[68] Briefly, four adjacent single-guide RNAs (sgRNAs) (spaced 50–100 bp apart; sgRNA1: […]; sgRNA2: […]; sgRNA3: […]; sgRNA4: […]) that target key exon of Gpr3 were designed. […]

The target of a further assay is T6, GPR3 A201W mutant (Homo sapiens, UniProt P46089, A201W).
T6 construct: expressed in transfected cells
Nature of the assay: OA dose-response, GloSensor cAMP assay, AD293 stably expressing GPR3 A201W mutant. The format is cell-based. To be noted: Table S3, A201W. The protocol:
as §1, §2

Assay [3] deals with Gs/cAMP/PKA signaling in iBAT. The assay is described as follows: Ex vivo iBAT of WT mice, p-PKA substrate immunoblot. It counts as cell-based, mouse. To be noted: up to 4 h. The protocol: iBAT was isolated from C57BL/6N mice at 4-6 weeks old and cut into 10 mg pieces. […] Another group of iBAT pieces were incubated in DMEM medium at 4 °C, and treated with different doses of OA (0 mM, 1 mM, 5 mM) for 4 h. OA (Sigma, O1008) was dissolved in serum-free DMEM (Gibco, high glucose, 12100046) by using an ultrasonic cleaner at 40 °C for 10 min.

In another assay the target is T7, GPR3 L283F mutant (Homo sapiens, UniProt P46089, L283F).
T7 construct: expressed in transfected cells
The assay is described as follows: OA dose-response, GloSensor cAMP assay, AD293 stably expressing GPR3 L283F mutant. It counts as cell-based. To be noted: Table S3, L283F. The protocol:
as §1, §2

A further assay addresses T8, GPR3 H96A mutant (Homo sapiens, UniProt P46089, H96A).
T8 construct: expressed in transfected cells
Nature of the assay: OA dose-response, GloSensor cAMP assay, AD293 stably expressing GPR3 H96A mutant. It counts as cell-based. To be noted: Table S3, H96A. On the procedure:
as §1, §2

Another assay addresses T9, GPR12 (Homo sapiens, UniProt P47775).
T9 construct: FLAG; expressed in transfected cells
T9 sequence (P47775 1-334): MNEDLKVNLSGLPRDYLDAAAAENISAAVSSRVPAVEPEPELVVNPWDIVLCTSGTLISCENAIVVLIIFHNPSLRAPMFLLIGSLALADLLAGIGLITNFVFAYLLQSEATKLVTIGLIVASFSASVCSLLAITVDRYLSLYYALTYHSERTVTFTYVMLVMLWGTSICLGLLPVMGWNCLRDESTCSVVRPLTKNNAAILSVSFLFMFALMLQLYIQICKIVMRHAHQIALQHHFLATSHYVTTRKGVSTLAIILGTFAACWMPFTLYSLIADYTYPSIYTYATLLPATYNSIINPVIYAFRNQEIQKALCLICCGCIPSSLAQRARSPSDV
Nature of the assay: GloSensor cAMP assay in GPR12 stably expressing AD293 cell line. The format is cell-based. The note with it: lipid concentration 300 μM.

Setting [4] is: Table S3, WT receptor stable line, OA dose-response.

T1 sequence (P46089 whole entry): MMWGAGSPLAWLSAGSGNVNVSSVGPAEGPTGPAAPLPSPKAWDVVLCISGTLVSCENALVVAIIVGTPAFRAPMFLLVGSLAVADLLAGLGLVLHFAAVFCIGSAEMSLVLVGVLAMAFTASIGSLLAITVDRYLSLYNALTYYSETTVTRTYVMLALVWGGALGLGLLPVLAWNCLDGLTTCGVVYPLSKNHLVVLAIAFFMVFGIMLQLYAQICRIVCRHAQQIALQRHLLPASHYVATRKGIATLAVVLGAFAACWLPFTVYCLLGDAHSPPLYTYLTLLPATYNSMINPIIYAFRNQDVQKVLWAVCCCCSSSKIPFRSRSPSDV
T8 sequence (P46089 whole entry H96A): as the sequence (P46089 whole entry) above, with H96A counted along it
T4 sequence (P46089 whole entry Y280A): as the sequence (P46089 whole entry) above, with Y280A counted along it
T3 sequence (P46089 whole entry F120A): as the sequence (P46089 whole entry) above, with F120A counted along it
T6 sequence (P46089 whole entry A201W): as the sequence (P46089 whole entry) above, with A201W counted along it
T2 sequence (P46089 whole entry W260A): as the sequence (P46089 whole entry) above, with W260A counted along it
T7 sequence (P46089 whole entry L283F): as the sequence (P46089 whole entry) above, with L283F counted along it
T5 sequence (P46089 whole entry H96A/Y280A): as the sequence (P46089 whole entry) above, with H96A, Y280A counted along it

Regarding `CCCCCCCC/C=C\CCCCCCCC(=O)O` [OA, oleic acid], in assay [1], the “thermogenesis and body weight” value was “induces thermogenesis and reduces body weight”. The maximum response at GPR3 (Table S2, relative cAMP level, at 500 μM (FA 12:0, 16:1, 18:0, OEA 18:1, OLM 18:1), 450 μM (FA 18:1), 400 μM (FA 16:0), 300 μM (FA 22:0, 18:2), 100 μM (FAME 18:0, FAEE 18:0, lysophospholipids), 3 μM (LTB4)) was determined as 164.1; on GPR3 (setting [4]), 186.6; at GPR3 F120A mutant it was 23.67; on GPR3 Y280A mutant, 61.91; at GPR3 A201W mutant, 157.9; at GPR3 L283F mutant, 39.13. The same compound came in with a maximum response at GPR3 H96A mutant of 83.68. The EC50 was 293 µM at GPR3 (setting [4]); 299 µM and 300 µM at GPR3 (cAMP induction, GPR3 stably expressing AD293); 40.6 µM with GPR120; 252 µM on GPR3 F120A mutant; 322 µM at GPR3 Y280A mutant; 291 µM on GPR3 A201W mutant. The same compound displayed a concentration for a half-maximal effect (EC50) at GPR3 H96A mutant of 255 µM. Further, on GPR3 W260A mutant, the “response to OA (in words)” value is “completely lost their response to OA”. Further, the “Emax compared to WT receptor (in words)” value on GPR3 H96A/Y280A mutant is “lower Emax than the WT receptor”. In assay [2], the “induction of Gs/cAMP/PKA signaling by OA” value is reported as “completely blocked”. In addition, the “Gs/cAMP/PKA signaling (phosphorylation of PKA substrates)” value in [3] (WT iBAT at 4 °C, lipid 1 mM (OA also 5 mM)) was “robust increase of Gs/cAMP/PKA signaling; also recorded: substantially increased Gs/cAMP/PKA signaling”; in assay [3] (WT iBAT at 37 °C, OA 1 mM, 5 mM), “to a lesser extent than in the samples treated at 4 °C”. Also, on GPR12, the “GPR12 activation (in words)” value is “strongest effect on GPR12 activation”.
